System: subjects with chronic idiopathic thrombocytopenic purpura (ITP)
Assay: Phase 2 28-day study of E5501 tablets: safety and tolerability (TEAEs, discontinuations)
Type: in vivo, human
Settings: for Discontinued study, primary reason Adverse Event or SAE / Discontinued study, primary reason Platelet Count Increase to ≧500 K/mm^3: randomized/safety/FAS; for Blood and lymphatic system disorders / Cardiac disorders / Eye disorders / Gastritis haemorrhagic / Gastrointestinal disorders / Infections and infestations / Myocardial infarction / Nervous system disorders / Pneumonia / Retinal artery occlusion / Thrombocytopenia / Transient ischaemic attack: serious TEAE
Procedure: This was a phase 2, multi-center, double-blind, randomized, placebo-controlled, dose-ranging, parallel group study of E5501 tablets, used in the treatment of subjects with chronic idiopathic thrombocytopenic purpura (ITP) refractory to or relapsed after at least one prior ITP therapy. Subjects who met all entry criteria were randomly assigned in a 3:3:3:3:1 ratio to one of the following five treatment groups dosed daily for 28 days: 1) E5501 2.5 mg; 2) E5501 5 mg; 3) E5501 10 mg; 4) E5501 20 mg; or 5) placebo (PBO). Each E5501 dosing group consisted of 15 subjects while the PBO group consisted of 5 subjects. All study subjects were evaluated weekly (days 7, 14, 21 and 28) for safety and efficacy while receiving study treatment, with a final assessment for safety and effectiveness performed 4 weeks after the last study dose (day 56) unless the subject entered the follow-on study. Platelet counts were also measured on day 3 and day 5.
The safety and tolerability parameters included adverse events, clinical laboratory parameters, study drug exposure, vital electrocardiograms, concomitant medications, serum pregnancy tests for women of childbearing potential and physical examinations including height, weight, general appearance and recording of vital signs.
The populations of interest were defined as follows: • The randomized population included all subjects who were randomized into the study. • The safety population included all randomized subjects who receive at least one dose of study drug and have at least one safety assessment. • The pharmacokinetic (PK) population included all subjects who provided blood sample for analysis of E5501. A subject was included in this population if the subject had at least one blood draw for PK assessment. • The full analysis set (FAS) included all subjects who provided adequate data to derive at least one efficacy assessment. […] The day 28 visit window was defined to be from day 25, to last dose day+1, inclusively; • Other major protocol violations that impacted the platelet endpoint evaluation. Results from Planned Analyses
Subject Disposition. Sixty four subjects were randomly assigned to treatment in this study. All treated subjects provided adequate efficacy data and therefore were included in the FAS population. The number and percentage of subjects who completed treatment or discontinued prematurely were summarized by treatment groups as shown in Table 1. In addition, the number and percentage of subjects who withdrew were summarized by reason for discontinuation by treatment group. The majority (>85%) of subjects completed the study across all dose groups for the FAS, randomized, and safety populations. Seven subjects who discontinued the study early all were from E5501 dose groups: two subjects in each of 2.5, 10 and 20 mg dose groups and one subject in the 5 mg dose group.

## O=C(Nc1nc(-c2cc(Cl)cs2)c(N2CCN(C3CCCCC3)CC2)s1)c1cnc(N2CCC(C(=O)O)CC2)c(Cl)c1 [E5501, 1-(3-chloro-5-{[4-(4-chlorothiophen-2-yl)-5-(4-cyclohexylpiperazin-1-yl)thiazol-2-yl]carbamoyl}pyridine-2-yl)piperidine-4-carboxylic acid]
TEAE, Total E5501
  Diarrhoea: 5 (8.5) n (%)
  Ecchymosis: 3 (5.1) n (%)
  Epistaxis: 9 (15.3) n (%)
  Fatigue: 12 (20.3) n (%)
  Headache: 12 (20.3) n (%)
  Migraine: 2 (3.4) n (%)
  Nausea: 3 (5.1) n (%)
  Pain in extremity: 3 (5.1) n (%)
  Petechiae: 2 (3.4) n (%)
  Platelet count increased: 4 (6.8) n (%)
  Upper respiratory tract infection: 3 (5.1) n (%)
  Vomiting: 4 (6.8) n (%)
Total E5501
  Death: 0 n (%)
  Serious TEAEs (Any Serious TEAE): 3 (5.1) n (%)
  TEAE Leading to Study Treatment Dose Interruption: 3 (5.1) n (%)
  TEAE Leading to Study Treatment Withdrawal: 4 (6.8) n (%)
  TEAEs: 50 (84.7) n (%)
  Treatment-Related Serious TEAEs: 1 (1.7) n (%)
  Treatment-Related TEAEs: 35 (59.3) n (%)
  Discontinued study, primary reason Adverse Event or SAE: 2 (3.4) n (%)
  Discontinued study, primary reason Platelet Count Increase to ≧500 K/mm^3: 2 (3.4) n (%)
  Blood and lymphatic system disorders: 1 (1.7) n (%)
  Cardiac disorders: 1 (1.7) n (%)
  Eye disorders: 1 (1.7) n (%)
  Gastritis haemorrhagic: 1 (1.7) n (%)
  Gastrointestinal disorders: 1 (1.7) n (%)
  Infections and infestations: 1 (1.7) n (%)
  Myocardial infarction: 1 (1.7) n (%)
  Nervous system disorders: 1 (1.7) n (%)
  Pneumonia: 1 (1.7) n (%)
  Retinal artery occlusion: 1 (1.7) n (%)
  Thrombocytopenia: 1 (1.7) n (%)
  Transient ischaemic attack: 1 (1.7) n (%)
All E5501
  TEAE leading to study treatment interruption: 3 cases
  TEAE leading to withdrawal of study treatment: 4 cases
  subjects with a TEAE leading to study drug withdrawal: 6.8%
All E5501-treated subjects
  Epistaxis: 15.3%
  Fatigue: 20.3%
  Headache: 20.3%
  subjects who experienced a treatment emergent adverse event (TEAE): 84.7%
  subjects with TEAE possibly or probably related to E5501: 59.3%
One for each of the 5 and 10 mg dose groups
  subjects who withdrew due to an AE: two
overall
  number of serious TEAEs: 6
2.5 mg
  Discontinued study, primary reason Adverse Event or SAE: 0 n (%)
  Discontinued study, primary reason Platelet Count Increase to ≧500 K/mm^3: 0 n (%)
  Blood and lymphatic system disorders: 1 (6.7) n (%)
  Cardiac disorders: 0 n (%)
  Eye disorders: 0 n (%)
  Gastritis haemorrhagic: 1 (6.7) n (%)
  Gastrointestinal disorders: 1 (6.7) n (%)
  Infections and infestations: 0 n (%)
  Myocardial infarction: 0 n (%)
  Nervous system disorders: 0 n (%)
  Pneumonia: 0 n (%)
  Retinal artery occlusion: 0 n (%)
  Thrombocytopenia: 1 (6.7) n (%)
  Transient ischaemic attack: 0 n (%)
5 mg
  Discontinued study, primary reason Adverse Event or SAE: 1 (6.7) n (%)
  Discontinued study, primary reason Platelet Count Increase to ≧500 K/mm^3: 0 n (%)
  Blood and lymphatic system disorders: 0 n (%)
  Cardiac disorders: 0 n (%)
  Eye disorders: 0 n (%)
  Gastritis haemorrhagic: 0 n (%)
  Gastrointestinal disorders: 0 n (%)
  Infections and infestations: 0 n (%)
  Myocardial infarction: 0 n (%)
  Nervous system disorders: 0 n (%)
  Pneumonia: 0 n (%)
  Retinal artery occlusion: 0 n (%)
  Thrombocytopenia: 0 n (%)
  Transient ischaemic attack: 0 n (%)
10 mg
  Discontinued study, primary reason Adverse Event or SAE: 1 (7.1) n (%)
  Discontinued study, primary reason Platelet Count Increase to ≧500 K/mm^3: 0 n (%)
  Blood and lymphatic system disorders: 0 n (%)
  Cardiac disorders: 1 (7.1) n (%)
  Eye disorders: 1 (7.1) n (%)
  Gastritis haemorrhagic: 0 n (%)
  Gastrointestinal disorders: 0 n (%)
  Infections and infestations: 1 (7.1) n (%)
  Myocardial infarction: 1 (7.1) n (%)
  Nervous system disorders: 1 (7.1) n (%)
  Pneumonia: 1 (7.1) n (%)
  Retinal artery occlusion: 1 (7.1) n (%)
  Thrombocytopenia: 0 n (%)
  Transient ischaemic attack: 1 (7.1) n (%)
20 mg
  Discontinued study, primary reason Adverse Event or SAE: 0 n (%)
  Discontinued study, primary reason Platelet Count Increase to ≧500 K/mm^3: 2 (13.3) n (%)
  Blood and lymphatic system disorders: 0 n (%)
  Cardiac disorders: 0 n (%)
  Eye disorders: 0 n (%)
  Gastritis haemorrhagic: 0 n (%)
  Gastrointestinal disorders: 0 n (%)
  Infections and infestations: 0 n (%)
  Myocardial infarction: 0 n (%)
  Nervous system disorders: 0 n (%)
  Pneumonia: 0 n (%)
  Retinal artery occlusion: 0 n (%)
  Thrombocytopenia: 0 n (%)
  Transient ischaemic attack: 0 n (%)
